Paper PMC6002473, “An Evolutionarily Conserved Structural Platform for PRC2 Inhibition by a Class of Ezh2 Inhibitors” (Scientific Reports, 2018)

Target: T1, ctEzh2 (ctPRC2) (Thermochaetoides thermophila, UniProt G0SDW4)
T1 construct: gene EZH2; Fusion of Ezh2 (residues 191–950) and the VEFS domain of Suz12 (residues 530–691), and full length Eed (residues 1–565); with Eed, Suz12(VEFS)
T1 sequence (G0SDW4 191-950): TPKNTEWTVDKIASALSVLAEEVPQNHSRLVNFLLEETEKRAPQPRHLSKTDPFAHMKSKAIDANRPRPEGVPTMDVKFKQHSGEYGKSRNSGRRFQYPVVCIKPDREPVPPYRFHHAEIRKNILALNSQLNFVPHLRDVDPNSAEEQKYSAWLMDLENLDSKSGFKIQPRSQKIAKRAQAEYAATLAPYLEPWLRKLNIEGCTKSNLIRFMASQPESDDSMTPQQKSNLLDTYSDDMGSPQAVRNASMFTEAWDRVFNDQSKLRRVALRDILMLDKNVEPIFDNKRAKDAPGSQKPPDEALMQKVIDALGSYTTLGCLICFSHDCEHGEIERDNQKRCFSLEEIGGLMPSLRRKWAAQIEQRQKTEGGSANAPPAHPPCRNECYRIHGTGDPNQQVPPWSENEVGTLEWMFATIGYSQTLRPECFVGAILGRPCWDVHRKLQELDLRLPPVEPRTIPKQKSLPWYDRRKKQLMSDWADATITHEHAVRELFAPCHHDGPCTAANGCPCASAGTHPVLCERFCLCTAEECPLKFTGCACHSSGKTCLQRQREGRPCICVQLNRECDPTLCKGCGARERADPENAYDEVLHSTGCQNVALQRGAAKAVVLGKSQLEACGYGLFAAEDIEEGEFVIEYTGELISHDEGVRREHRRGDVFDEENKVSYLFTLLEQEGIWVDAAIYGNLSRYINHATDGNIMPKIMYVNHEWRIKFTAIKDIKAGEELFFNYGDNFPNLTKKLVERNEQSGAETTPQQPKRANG
T1 sequence (G0S8H7 1-565 partner): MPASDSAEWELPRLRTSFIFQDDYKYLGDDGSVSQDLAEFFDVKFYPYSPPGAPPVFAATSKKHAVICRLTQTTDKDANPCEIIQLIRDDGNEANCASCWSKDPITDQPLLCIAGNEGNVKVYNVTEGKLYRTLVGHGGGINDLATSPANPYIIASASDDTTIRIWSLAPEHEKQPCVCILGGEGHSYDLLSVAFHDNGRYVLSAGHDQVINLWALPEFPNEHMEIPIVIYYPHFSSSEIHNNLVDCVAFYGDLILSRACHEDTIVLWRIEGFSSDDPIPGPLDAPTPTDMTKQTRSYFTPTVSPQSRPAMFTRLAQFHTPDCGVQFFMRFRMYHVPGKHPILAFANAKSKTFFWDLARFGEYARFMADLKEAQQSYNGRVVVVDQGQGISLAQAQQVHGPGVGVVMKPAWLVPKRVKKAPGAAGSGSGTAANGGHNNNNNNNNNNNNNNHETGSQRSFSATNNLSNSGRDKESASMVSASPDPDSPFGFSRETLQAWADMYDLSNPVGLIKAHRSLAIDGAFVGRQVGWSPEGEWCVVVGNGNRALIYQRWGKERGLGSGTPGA
T1 sequence (G0RYC6 530-691 partner): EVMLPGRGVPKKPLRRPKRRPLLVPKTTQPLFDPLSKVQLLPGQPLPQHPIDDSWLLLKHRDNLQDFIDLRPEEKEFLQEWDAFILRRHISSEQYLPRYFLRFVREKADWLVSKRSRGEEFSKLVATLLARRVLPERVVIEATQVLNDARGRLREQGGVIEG
Assay: co-crystal structure ([…] Å, soaked); radiometric methyltransferase IC50
Assay type: biochemical

CC[C@H](C)n1cc(C)c2c(C(=O)NCc3c(C)cc(C)[nH]c3=O)cc(-c3ccc(N4CCNCC4)nc3)cc21 [GSK126] gave an IC50 of ~100 µM.
